Calls of active or inactive are those of the source. The rule behind the calls is not given here. Numbered stars: 1 amine (or outer) side, 2 acyl side, 3 side chain; on linkers, the order of the positions; unused ones are H or OH. Bridge positions count the residues as written; N and C are the ends. Square brackets hold non-standard residues; d marks the D form. Peptide text beside a SMILES is read from it. I, II: the chains in the order shown. ξ: configuration not given here. X1 = O=C([C@H](Cc1c[nH]c2ccccc12)N(c1ccc([N+](=O)[O-])c2nonc12)[*:1])[*:2]; ξN = NC(=O)CC(N)C(=O)O
Columns and labels:
HepG2 [1] = experiment: Induction of apoptosis in human HepG2 cells assessed as viable cells at 15 uM measured after 24 hrs by Annexin V-FITC/propidium iodide staining based flow cytometry relative to control; type: functional; settings: read-out: Activity
L02 = experiment: Induction of apoptosis in human L02 cells assessed as reduction in viable cells at 15 uM measured after 24 hrs by Annexin V-FITC/propidium iodide staining based flow cytometry; type: toxicity, cell-based; settings: l02, 24 h
HepG2 [2] = experiment: Cytotoxicity against human HepG2 cells assessed as cell viability at 30 uM measured after 24 hrs by CCK-8 assay relative to control; type: functional; settings: read-out: Activity
A549 [3] = experiment: Induction of apoptosis in human A549 cells assessed as viable cells at 15 uM measured after 24 hrs by Annexin V-FITC/propidium iodide staining based flow cytometry relative to control; type: functional; settings: read-out: Activity
BEAS-2B = experiment: Induction of apoptosis in human BEAS-2B cells assessed as reduction in viable cells at 15 uM measured after 24 hrs by Annexin V-FITC/propidium iodide staining based flow cytometry; type: toxicity, cell-based
[4] = Cytotoxicity against human BEAS-2B cells assessed as reduction in cell viability measured after 24 hrs by CCK-8 assay; type: toxicity, cell-based
HepG2 [5] = experiment: Cytotoxicity against human HepG2 cells assessed as reduction in cell viability measured after 24 hrs by CCK-8 assay; type: functional, cell-based; settings: for IC50: HepG2, 24 h
A549 [6] = experiment: Cytotoxicity against human A549 cells assessed as cell viability at 30 uM measured after 24 hrs by CCK-8 assay relative to control; type: functional; settings: read-out: Activity
[7] = Cytotoxicity against human L02 cells assessed as reduction in cell viability measured after 24 hrs by CCK-8 assay; type: toxicity, cell-based
A549 [8] = experiment: Cytotoxicity against human A549 cells assessed as reduction in cell viability measured after 24 hrs by CCK-8 assay; type: functional, cell-based; settings: for IC50: A549, 24 h
HepG2 [9] = experiment: Induction of apoptosis in human HepG2 cells assessed as increase in late apoptotic cells at 15 uM measured after 24 hrs by Annexin V-FITC/propidium iodide staining based flow cytometry; type: functional, cell-based
HepG2 [10] = experiment: Induction of morphological changes in human HepG2 cells assessed as decrease in cell number at 15 uM measured after 24 hrs by high-throughput microscopy; type: functional, cell-based
HepG2 [11] = experiment: Induction of apoptosis in human HepG2 cells assessed as increase in necrotic cells at 15 uM measured after 24 hrs by Annexin V-FITC/propidium iodide staining based flow cytometry; type: functional, cell-based
HepG2 [12] = experiment: Induction of morphological changes in human HepG2 cells assessed as appearance of abnormal cell morphology at 15 uM measured after 24 hrs by high-throughput microscopy; type: functional, cell-based
A549 [13] = experiment: Induction of apoptosis in human A549 cells assessed as increase in necrotic cells at 15 uM measured after 24 hrs by Annexin V-FITC/propidium iodide staining based flow cytometry; type: functional, cell-based
A549 [14] = experiment: Induction of cell membrane disruption in human A549 cells assessed as increase in LDH release at 15 uM measured after 1 hr by LDH releasing reagent based assay
A549 [15] = experiment: Induction of apoptosis in human A549 cells assessed as increase in late apoptotic cells at 15 uM measured after 24 hrs by Annexin V-FITC/propidium iodide staining based flow cytometry; type: functional, cell-based
HepG2 [16] = experiment: Induction of cell membrane disruption in human HepG2 cells assessed as increase in LDH release at 15 uM measured after 1 hr by LDH releasing reagent based assay
[17] = Drug uptake in human L02 cells at 15 uM measured after 1 hr by Hoechst 33258 staining based confocal laser scanning microscopy; type: ADME, cell-based; settings: l02, 1 h
[18] = Drug uptake in human HepG2 cells at 15 uM measured after 1 hr by Hoechst 33258 staining based confocal laser scanning microscopy; type: ADME, cell-based; settings: hepg2, 1 h
[19] = Drug uptake in human A549 cells at 15 uM measured after 1 hr by Hoechst 33258 staining based confocal laser scanning microscopy; type: ADME, cell-based; settings: a549, 1 h
[20] = Drug uptake in human BEAS-2B cells at 15 uM measured after 1 hr by Hoechst 33258 staining based flow cyotmetry; type: ADME, cell-based
[21] = Drug uptake in human HepG2 cells at 15 uM measured after 1 hr by Hoechst 33258 staining based flow cyotmetry; type: ADME, cell-based; settings: hepg2, 1 h
[22] = Drug uptake in human A549 cells at 15 uM measured after 1 hr by Hoechst 33258 staining based flow cyotmetry; type: ADME, cell-based; settings: a549, 1 h
[23] = Drug uptake in human L02 cells at 15 uM measured after 1 hr by Hoechst 33258 staining based flow cyotmetry; type: ADME, cell-based; settings: l02, 1 h
[24] = Drug uptake in human BEAS-2B cells at 15 uM measured after 1 hr by Hoechst 33258 staining based confocal laser scanning microscopy; type: ADME, cell-based

Compound | Activity (L02) | Activity (BEAS-2B) | IC50 at 24 h [4] [µM] | IC50 (HepG2 [5]) [µM] | IC50 at 24 h [7] [µM] | IC50 (A549 [8]) [µM] | Activity (HepG2 [9]) | Activity (HepG2 [10]) | Activity (HepG2 [11]) | Activity (HepG2 [12]) | Activity (A549 [13]) | Activity (A549 [14]) | Activity (A549 [15]) | Activity (HepG2 [16]) | other results
N=C(N)NCCC[C@H](NC(=O)[C@H](CCCNC(=N)N)NC(=O)[C@H](CCCNC(=N)N)NC(=O)[C@H](CCCNC(=N)N)NC(=O)[C@H](CCCNC(=N)N)NC(=O)[C@H](CCCNC(=N)N)NC(=O)[C@H](CCCNC(=N)N)NC(=O)[C@H](CCCNC(=N)N)NC(=O)[C@@H](N)CCCNC(=N)N)C(=O)O | Non-Toxic | Non-Toxic | > 100 | > 100 | > 100 | > 100 |  |  |  |  |  |  |  |  | viability at 15 µM (HepG2 [1]): > 80%; viability at 30 µM (HepG2 [2]): > 90%; viability at 15 µM (A549 [3]): > 80%; viability at 30 µM (A549 [6]): > 90%
N=C(N)NCCC[C@H](NC(=O)[C@H](CCCNC(=N)N)NC(=O)[C@H](CCCNC(=N)N)NC(=O)[C@H](CCC(N)=O)NC(=O)[C@H](CCCNC(=N)N)NC(=O)[C@H](CCCNC(=N)N)NC(=O)[C@H](CCCCN)NC(=O)[C@H](CCCCN)NC(=O)[C@H](CCCNC(=N)N)NC(=O)CNC(=O)[C@@H](N)Cc1ccc(O)cc1)C(=O)O | Non-Toxic | Non-Toxic | > 100 | > 100 | > 100 | > 100 |  |  |  |  |  |  |  |  | viability at 15 µM (HepG2 [1]): > 80%; viability at 30 µM (HepG2 [2]): > 90%; viability at 15 µM (A549 [3]): > 80%; viability at 30 µM (A549 [6]): > 90%
CC(C)C[C@H](NC(=O)[C@H](CCCCN)NC(=O)CNC(=O)[C@H](CC(C)C)NC(=O)[C@@H](NC(=O)[C@@H](NC(=O)[C@H](CC(C)C)NC(=O)[C@H](CCC(=O)O)NC(=O)[C@@H](N)Cc1c[nH]c2ccccc12)C(C)C)C(C)C)C(=O)O (H-WELVVLGKL-OH) | Non-Toxic | Non-Toxic |  |  |  | 90 |  |  |  |  |  |  |  |  | 
CC(C)C[C@H](NC(=O)[C@H](CCCCN)NC(=O)CNC(=O)[C@H](CC(C)C)NC(=O)[C@@H](NC(=O)[C@@H](NC(=O)[C@H](CC(C)C)NC(=O)[C@H](CCC(=O)O)NC(=O)[C@@H](N)Cc1c[nH]c2ccccc12)C(C)C)C(C)C)C(=O)N[C@@H](CC(C)C)C(=O)N[C@@H](CC(C)C)C(=O)N[C@@H](Cc1c[nH]cn1)C(=O)N[C@@H](Cc1c[nH]cn1)C(=O)N[C@@H](CC(C)C)C(=O)N[C@@H](CC(C)C)C(=O)N[C@@H](Cc1c[nH]cn1)C(=O)N[C@@H](Cc1c[nH]cn1)C(=O)N[C@@H](CC(C)C)C(=O)N[C@@H](CC(C)C)C(=O)N[C@@H](Cc1c[nH]cn1)C(=O)N[C@@H](Cc1c[nH]cn1)C(=O)N[C@@H](CCCNC(=N)N)C(=O)N[C@@H](CCCNC(=N)N)C(=O)N[C@@H](CCCNC(=N)N)C(=O)N[C@@H](CCCNC(=N)N)C(=O)N[C@@H](CCCNC(=N)N)C(=O)N[C@@H](CCCNC(=N)N)C(=O)N[C@@H](CCCNC(=N)N)C(=O)N[C@@H](CCCNC(=N)N)C(=O)N[C@@H](CCCNC(=N)N)C(=O)O (H-WELVVLGKLLLHHLLHHLLHHRRRRRRRRR-OH) | Non-Toxic | Non-Toxic | 18.5 | 10.1 | 15.6 | 10.5 | Active | Active | Active | Active | Active | Active | Active | Active | 
CC(C)C[C@H](NC(=O)[C@H](CCCCN)NC(=O)CNC(=O)[C@H](CC(C)C)NC(=O)[C@@H](NC(=O)[C@@H](NC(=O)[C@H](CC(C)C)NC(=O)[C@H](CCC(=O)O)NC(=O)[C@@H](N)Cc1c[nH]c2ccccc12)C(C)C)C(C)C)C(=O)N[C@@H](CCCNC(=N)N)C(=O)N[C@@H](CCCNC(=N)N)C(=O)N[C@@H](CCCNC(=N)N)C(=O)N[C@@H](CCCNC(=N)N)C(=O)N[C@@H](CCCNC(=N)N)C(=O)N[C@@H](CCCNC(=N)N)C(=O)N[C@@H](CCCNC(=N)N)C(=O)N[C@@H](CCCNC(=N)N)C(=O)N[C@@H](CCCNC(=N)N)C(=O)O (H-WELVVLGKLRRRRRRRRR-OH) | Non-Toxic | Non-Toxic | 22.8 | 14.4 | 21.6 | 17.3 | Active | Active | Active | Active | Active | Active | Active | Active | Activity (HepG2 [5]; DDE = dose-dependent effect): Dde; Activity (A549 [8]; DDE = dose-dependent effect): Dde
CC(C)C[C@H](NC(=O)[C@H](CCCCN)NC(=O)CNC(=O)[C@H](CC(C)C)NC(=O)[C@@H](NC(=O)[C@@H](NC(=O)[C@H](CC(C)C)NC(=O)[C@H](CCC(=O)O)NC(=O)[C@H](Cc1c[nH]c2ccccc12)Nc1ccc([N+](=O)[O-])c2nonc12)C(C)C)C(C)C)C(=O)N[C@@H](CC(C)C)C(=O)N[C@@H](CC(C)C)C(=O)N[C@@H](Cc1c[nH]cn1)C(=O)N[C@@H](Cc1c[nH]cn1)C(=O)N[C@@H](CC(C)C)C(=O)N[C@@H](CC(C)C)C(=O)N[C@@H](Cc1c[nH]cn1)C(=O)N[C@@H](Cc1c[nH]cn1)C(=O)N[C@@H](CC(C)C)C(=O)N[C@@H](CC(C)C)C(=O)N[C@@H](Cc1c[nH]cn1)C(=O)N[C@@H](Cc1c[nH]cn1)C(=O)N[C@@H](CCCNC(=N)N)C(=O)N[C@@H](CCCNC(=N)N)C(=O)N[C@@H](CCCNC(=N)N)C(=O)N[C@@H](CCCNC(=N)N)C(=O)N[C@@H](CCCNC(=N)N)C(=O)N[C@@H](CCCNC(=N)N)C(=O)N[C@@H](CCCNC(=N)N)C(=O)N[C@@H](CCCNC(=N)N)C(=O)N[C@@H](CCCNC(=N)N)C(=O)O (H-[X1]ELVVLGKLLLHHLLHHLLHHRRRRRRRRR-OH) |  |  |  |  |  |  |  |  |  |  |  |  |  |  | Drug uptake [17]: Active; Drug uptake [18]: Active; Drug uptake [19]: Active; Drug uptake [20]: Active; Drug uptake [21]: Active; Drug uptake [22]: Active; Drug uptake [23]: Active; Drug uptake [24]: Active
I: H-WELVVLGKLGLRKRLRKFRNKIKEK / II: H-GLRKRLRKFR[ξN]KIKEK-OH (amide I:C-II:4) | Non-Toxic | Non-Toxic | 19.8 | 13.2 | 18.4 | 13.1 | Active | Active | Active | Active | Active | Active | Active | Active | 

Source: ChEMBL document CHEMBL5120831, “Pep5-based antitumor peptides containing multifunctional fragments with enhanced activity and synergistic effect” (Eur J Med Chem, 2022)
